Source: patent publication US20210380606A1, “5-AZAINDAZOLE DERIVATIVES AS ADENOSINE RECEPTOR ANTAGONISTS” (Merck Patent GmbH, priority 2018, published 2021)

Legend:
human A2B receptors = biological target: T1, human A2B receptors (Homo sapiens, UniProt P29275); experiment: Functional human A2B receptor activity, recombinant HEK293 cells, cAMP (HTRF); format: cell-based; conditions: read-out: A2B (Category)
T1 construct: expressed in transfected cells; host or cells: HEK293
T1 sequence (P29275 1-332): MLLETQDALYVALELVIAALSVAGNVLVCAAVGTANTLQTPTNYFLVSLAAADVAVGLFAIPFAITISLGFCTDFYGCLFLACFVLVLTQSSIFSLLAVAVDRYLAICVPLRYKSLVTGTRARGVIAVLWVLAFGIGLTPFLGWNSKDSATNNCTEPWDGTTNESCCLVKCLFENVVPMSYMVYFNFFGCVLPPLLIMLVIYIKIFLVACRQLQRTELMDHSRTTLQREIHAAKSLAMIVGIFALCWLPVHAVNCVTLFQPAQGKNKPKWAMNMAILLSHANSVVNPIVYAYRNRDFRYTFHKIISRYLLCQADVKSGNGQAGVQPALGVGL
Outline: (§1)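 Receptor function was assessed by measuring cAMP, the second messenger for adenosine receptors. Cells were incubated for 15 min, after which HTRF reagents were added and cellular cAMP levels were read.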

human A2A receptors = biological target: T2, human A2A receptors (Homo sapiens, UniProt P29274); experiment: Functional human A2A receptor activity, recombinant HEK293 cells, cAMP (HTRF); format: cell-based; conditions: read-out: A2A (Category)
T2 construct: expressed in transfected cells; host or cells: HEK293
T2 sequence (P29274 whole entry): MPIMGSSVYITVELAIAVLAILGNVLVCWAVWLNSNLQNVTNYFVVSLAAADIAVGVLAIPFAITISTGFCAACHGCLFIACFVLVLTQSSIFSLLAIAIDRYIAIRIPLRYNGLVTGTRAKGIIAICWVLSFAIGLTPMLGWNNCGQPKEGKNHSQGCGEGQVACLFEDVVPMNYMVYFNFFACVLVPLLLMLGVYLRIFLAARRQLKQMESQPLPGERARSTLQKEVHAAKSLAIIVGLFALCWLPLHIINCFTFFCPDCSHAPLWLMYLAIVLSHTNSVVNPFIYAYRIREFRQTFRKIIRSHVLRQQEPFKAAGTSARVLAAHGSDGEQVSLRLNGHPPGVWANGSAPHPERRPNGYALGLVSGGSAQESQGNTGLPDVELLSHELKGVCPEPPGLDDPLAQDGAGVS
Outline: as §1

| Compound | IC50 (human A2B receptors) [nM] | IC50 (human A2A receptors) [nM] |
| --- | --- | --- |
| O=C(c1cc2c(cn1)c(-c1coc3ccccc13)nn2CC(F)F)N1C2CCC1CC(O)C2 (stereo not drawn) [Compound 220, [3-Benzofuran-3-yl-1-(2,2-difluoro-ethyl)-1H-pyrazolo[4,3-c]pyridin-6-yl]-(3-endo-hydroxy-8-exo-methyl-3-aza-bicyclo[3.2.1]oct-3-yl)-methanone] | < 1000 | < 100 |
| O=C(c1cc2c(cn1)c(-c1cnc3ccc(F)cn13)nn2CC(F)(F)F)N1[C@@H]2CC[C@H]1C[C@@H](O)C2 [Compound 86, [3-(6-fluoroimidazo[1,2-a]pyridin-3-yl)-1-(2,2,2-trifluoroethyl)pyrazolo[4,3-c]pyridin-6-yl]-(3-endo-hydroxy-8-azabicyclo[3.2.1]octan-8-yl)methanone] | < 100 | < 100 |
| CS(=O)(=O)Cn1nc(-c2coc3ccccc23)c2cnc(C(=O)N3[C@@H]4CC[C@H]3C[C@@H](O)C4)cc21 [Compound 37, [3-(benzofuran-3-yl)-1-(methylsulfonylmethyl)pyrazolo[4,3-c]pyridin-6-yl]-(3-endo-hydroxy-8-azabicyclo[3.2.1]octan-8-yl)methanone] | < 100 | < 100 |
| O=C(c1cc2c(cn1)c(-c1cnc3cnccn13)nn2CC(F)(F)F)N1CCCCCC1 [Compound 56, Azepan-1-yl-[3-imidazo[1,2-a]pyrazin-3-yl-1-(2,2,2-trifluoro-ethyl)-1H-pyrazolo[4,3-c]pyridin-6-yl]-methanone] | < 1000 | < 100 |
| CC(C)CC1CN(C(=O)c2cc3c(cn2)c(-c2cnc4c(F)cc(F)cn24)nn3CC(F)(F)F)CCC1O (stereo not drawn) [Compound 143, [3-(6,8-Difluoro-imidazo[1,2-a]pyridin-3-yl)-1-(2,2,2-trifluoro-ethyl)-1H-pyrazolo[4,3-c]pyridin-6-yl]-(4-hydroxy-3-isobutyl-piperidin-1-yl)-methanone] | < 1000 | < 100 |
| CC1(CO)CCN(C(=O)c2cc3c(cn2)c(-c2cnc4c(F)cc(F)cn24)nn3CC(F)(F)F)CC1 [Compound 176, [3-(6,8-Difluoro-imidazo[1,2-a]pyridin-3-yl)-1-(2,2,2-trifluoro-ethyl)-1H-pyrazolo[4,3-c]pyridin-6-yl]-(4-hydroxymethyl-4-methyl-piperidin-1-yl)-methanone] | < 1000 | < 100 |

Other lines, results leading:

| IC50 (human A2B receptors) [nM] | IC50 (human A2A receptors) [nM] | Compound |
| --- | --- | --- |
| < 1000 | < 100 | O=C(c1cc2c(cn1)c(-c1cnn3ccccc13)nn2CC(F)(F)F)N1CC2CCC(C1)O2 [Compound 99, (8-Oxa-3-aza-bicyclo[3.2.1]oct-3-yl)-[3-pyrazolo[1,5-a]pyridin-3-yl-1-(2,2,2-trifluoro-ethyl)-1H-pyrazolo[4,3-c]pyridin-6-yl]-methanone] |
| < 1000 | < 100 | CCN(C(=O)c1cc2c(cn1)c(-c1coc3ccccc13)nn2CC(F)(F)F)C(C)C [Compound 234, 3-(benzofuran-3-yl)-N-ethyl-N-isopropyl-1-(2,2,2-trifluoroethyl)-pyrazolo[4,3-c]pyridine-6-carboxamide] |
| < 100 | < 100 | O=C(c1cc2c(cn1)c(-c1coc3ccccc13)nn2CC(F)(F)F)N1CCCC(O)C1 (stereo not drawn) [Compound 227, [3-Benzofuran-3-yl-1-(2,2,2-trifluoro-ethyl)-1H-pyrazolo[4,3-c]pyridin-6-yl]-(3-hydroxy-piperidin-1-yl)-methanone] |
| < 100 | < 100 | O=C(c1cc2c(cn1)c(-c1cnc3ccc(F)cn13)nn2CC(F)(F)F)N1CCCCCC1 [Compound 44, Azepan-1-yl-[3-(6-fluoro-imidazo[1,2-a]pyridin-3-yl)-1-(2,2,2-trifluoro-ethyl)-1H-pyrazolo[4,3-c]pyridin-6-yl]-methanone] |
| < 1000 | < 100 | O=C(c1cc2c(cn1)c(-c1cnc3c(F)cc(F)cn13)nn2CC(F)(F)F)N1CCC(O)C(F)(F)C1 (stereo not drawn) [Compound 203, (3,3-Difluoro-4-hydroxy-piperidin-1-yl)-[3-(6,8-difluoro-imidazo[1,2-a]pyridin-3-yl)-1-(2,2,2-trifluoro-ethyl)-1H-pyrazolo[4,3-c]pyridin-6-yl]-methanone] |
| < 1000 | < 100 | O=C(c1cc2c(cn1)c(-c1nnc3ccccn13)nn2CC(F)(F)F)N1CCCCCC1 [Compound 71, Azepan-1-yl-[3-[1,2,4]triazolo[4,3-a]pyridin-3-yl-1-(2,2,2-trifluoro-ethyl)-1H-pyrazolo[4,3-c]pyridin-6-yl]-methanone] |
| < 1000 | < 100 | O=C(c1cc2c(cn1)c(-c1cnc3c(F)cc(F)cn13)nn2CC(F)(F)F)N1CCCC(O)C1 (stereo not drawn) [Compound 151, [3-(6,8-Difluoro-imidazo[1,2-a]pyridin-3-yl)-1-(2,2,2-trifluoro-ethyl)-1H-pyrazolo[4,3-c]pyridin-6-yl]-(3-hydroxy-piperidin-1-yl)-methanone] |
| < 100 | < 100 | O=C(c1cc2c(cn1)c(-c1cnc3c(F)cc(F)cn13)nn2CC(F)(F)F)N1CCC(O)CC1 [Compound 132, [3-(6,8-Difluoro-imidazo[1,2-a]pyridin-3-yl)-1-(2,2,2-trifluoro-ethyl)-1H-pyrazolo[4,3-c]pyridin-6-yl]-(4-hydroxy-piperidin-1-yl)-methanone] |
| < 100 | < 100 | O=C(c1cc2c(cn1)c(-c1cnn3ccccc13)nn2CC(F)(F)F)N1CCCCCC1 [Compound 89, Azepan-1-yl-[3-pyrazolo[1,5-a]pyridin-3-yl-1-(2,2,2-trifluoro-ethyl)-1H-pyrazolo[4,3-c]pyridin-6-yl]-methanone hydrochoride] |
